# Results: patent publication US7288671B2, “Interleukin-1 and tumor necrosis factor-α modulators, synthesis of said modulators and their enantiomers and methods of using said modulators” (Nereus Pharmaceuticals, Inc., priority 1999, dated 2007)
# Read-outs that look alike come from different tables or passages of the source.
# Key:
# THP-1 cells = assay: Resazurin (alamarBlue) cell viability assay in differentiated THP-1 cells; assay type: cell-based, human; conditions: footnote marks: * mild, ** marked reduction in viability, in % (unit assumed)
# Description: (§1) The ability to inhibit TNF-α production was analyzed in THP-1 cells, a human acute monocytic leukemia cell line that is widely used to assess monocyte functions. In order to induce maturation, THP-1 cells were plated at 1×10^6 cells/ml and pretreated with 5 nM PMA for two days. Differentiated THP-1 cells were pretreated with various concentrations of NPI-1302a-3 or its analogs for 1 hour, followed by a 4 hour incubation with 1 μg of LPS (Sigma, St. Louse, Mo.). The P38 inhibitor (10 μM, SB 203580; Sigma, St. Louis, Mo.) was used as a positive control. Supernatants were collected and stored at −80° C. until assayed for TNF-α activity. A resazurin assay was performed for each analog to evaluate the effects on cell metabolism and viability.
# A preparation of the dye resazurin, commercially-available as alamarBlue™ (Biosource International Inc.; 820 Flynn Road, Camarillo, Calif.), was used for the cytotoxicity assays described herein. The assays and experiments described herein were conducted in substantially the same manner as described in the scientific literature, for example, in Magnani, E and Bettini, E., “Resazurin detection of energy metabolism changes in serum-starved PC12 cells and of neuroprotective agent effect,” Brain Res Protoc., Jul. 5, 2000(3):266-72 and in Nociari M. M., Shalev A., Benias P., and Russo C. J, “A novel one-step, highly sensitive fluorometric assay to evaluate cell-mediated cytotoxicity,” Immunol.Methods 213, 157-167 (1998), see also U.S. Pat. No. 5,501,959, entitled “Antibiotic and Cytotoxic Drug Susceptibility Assays using Resazurin and Poising Agents,” the entire specification of which is incorporated herein by reference.
# [1] = tested on: TNF-α synthesis of THP-1 cells; assay: LPS-induced TNF-α production in PMA-differentiated THP-1 cells (FLISA); assay type: cell-based, human; conditions: THP-1, LPS
# Description: as §1
# To detect the presence of human TNFα, fluorescent linked immunosorbent assay or FLISA was developed and optimized. 100 μl of beads (6 μm, Spherotech) coated with goat anit-mouse IgG (1 mg/ml, R and D Systems) were mixed with 4 μl of biotin-anti-hTNFα mouse IgG (0.1 mg/ml, R and D Systems) and 2 μl of FMAT Blue-streptavidin (0.1 mg/ml, Applied Biosystems). 50 μl of the mixtures was combined with 50 μl of the supernatant isolated from treated THP-1 cells and added to the black wall FLISA plates (Applied Biosystems) and incubated overnight. The plates were scanned at factory set PMT setting, and the values were plotted and analyzed by Applied Biosystems software.
# [2] = tested on: iNOS (inducible nitric oxide synthase); conditions: cited from earlier work
# COX-2 (cyclooxygenase-2) = conditions: cited from earlier work
# IL-6 synthesis = assay: SAC-induced IL-6 synthesis, RAW 264.7 macrophage cells; assay type: cell-based, Murine
# Description: (§2) Murine macrophage cells RAW 264.7 (1×10^6/ml) were pretreated for 30-60 minutes with varying doses of the synthetic compound of Formula (I), the synthetic compound of formula (I) and a panel of analogs (diluted in 0.5% DMSO) prior to stimulation with various agents such as lipopolysaccharide (LPS) or a gram positive agent like heat-killed Staph aureus (SAC). Supernatants collected over a 72-hour period will be assayed for the levels of TNF-α, IL-1, IL-6, IL-10, IL-12 and other cytokines either by elisa or bioassay. Additional studies to evaluate the effects of the synthetic compound of Formulae (I), (II), (IIA) and (IIB) on cytokine signaling pathways such as, for example, Caspase-activity (Nr-1, Nr.3), transcription factors such as NF-kB, MAP-kinase activity (p38, ERK and JNK) will also be performed.
# TNF-α production = conditions: approximately 0.1 to approximately 1.0 microgram/ml for 48 hours; cited from earlier work
# IL-1 production = conditions: approximately 0.1 to approximately 1.0 microgram/ml for 48 hours; cited from earlier work
# IL-6 = conditions: same conditions; cited from earlier work
# IFN-γ (interferon-gamma) = conditions: same conditions; cited from earlier work
# silicosis = conditions: mice; cited from earlier work
# cirrhosis = conditions: mice; cited from earlier work
# mice = conditions: cited from earlier work
# rat = conditions: cited from earlier work
# TNF-α synthesis [3] = assay: Inhibition of LPS-induced TNF-α synthesis, RAW 264.7 macrophage cells; assay type: cell-based, Murine; conditions: for TNF-α: Table 7, LPS alone 88
# Description: as §2
# TNF-α synthesis [4] = assay: Inhibition of SAC-induced TNF-α synthesis, RAW 264.7 macrophage cells; assay type: cell-based, Murine; conditions: SAC alone 375, unstimulated 5
# Description: as §2
# IL-1 synthesis = assay: Inhibition of SAC-induced IL-1 synthesis, RAW 264.7 macrophage cells; assay type: cell-based, Murine; conditions: for IL-1α: Table 6, SAC-induced, SAC alone 650, unstimulated 0
# Description: as §2
# LPS/D-Gal administration = assay: Mortality after LPS/D-Gal administration; assay type: in vivo; conditions: i.p., TTL3 45 minutes prior to LPS
structure (smiles),measurement,setting,value
C=CC1(C)CCC=C2C1CCC1C(C)(CNCCN)CCCC21C (racemic) [CC-3-13 ra],Cell Viability,THP-1 cells; 100 ng/ml,95*
same,Cell Viability,THP-1 cells; 1 ug/ml,75**
same,Cell Viability,THP-1 cells; 10 ug/ml,20**
same,Percent TNF-α Inhibition,[1]; 100 ng/ml,10%
same,Percent TNF-α Inhibition,[1]; 1 ug/ml,50%
same,Percent TNF-α Inhibition,[1]; 10 ug/ml,95%
C=CC1(C)CCC=C2C1CCC1C(C)(CCNCCN)CCCC21C (racemic) [CC-3-15 ra],Cell Viability,THP-1 cells; 1 ug/ml,100
same,Cell Viability,THP-1 cells; 10 ug/ml,100
same,Percent TNF-α Inhibition,[1]; 1 ug/ml,25%
same,Percent TNF-α Inhibition,[1]; 10 ug/ml,65%
C=CC1(C)CCC=C2C1CCC1C(C)(C=O)CCCC21C (centres unmarked) [CC-3-09],Cell Viability,THP-1 cells; 100 ng/ml,100
same,Cell Viability,THP-1 cells; 1 ug/ml,100
same,Cell Viability,THP-1 cells; 10 ug/ml,100
same,Percent TNF-α Inhibition,[1]; 100 ng/ml,0%
same,Percent TNF-α Inhibition,[1]; 1 ug/ml,0%
same,Percent TNF-α Inhibition,[1]; 10 ug/ml,10%
C=CC1(C)CCC=C2C1CCC1C(C)(CC=O)CCCC21C (centres unmarked) [CC-3-14],Cell Viability,THP-1 cells; 100 ng/ml,100
same,Cell Viability,THP-1 cells; 1 ug/ml,100
same,Percent TNF-α Inhibition,[1]; 100 ng/ml,25%
same,Percent TNF-α Inhibition,[1]; 1 ug/ml,30%
C=CC1(C)CCC=C2C1CCC1C(C)(COC(=O)CCC(=O)O)CCCC21C (centres unmarked) [CC-3-17],Cell Viability,THP-1 cells; 100 ng/ml,90*
same,Cell Viability,THP-1 cells; 1 ug/ml,85*
same,Cell Viability,THP-1 cells; 10 ug/ml,75**
same,Percent TNF-α Inhibition,[1]; 100 ng/ml,10%
same,Percent TNF-α Inhibition,[1]; 1 ug/ml,20%
same,Percent TNF-α Inhibition,[1]; 10 ug/ml,25%
"CC1(C)CC[C@]2(C(=O)O)CC[C@]3(C)[C@H](C(=O)C=C4[C@@]5(C)C=C(C#N)C(=O)C(C)(C)[C@@H]5CC[C@]43C)[C@@H]2C1 [Compound 54, 2-cyano-3,12-dioxoolean-1,9-dien-28-oic acid]",fold more active than any other known triterpenoid in suppressing iNOS,[2],500 fold
same,fold more active than any other known triterpenoid in suppressing COX-2,COX-2 (cyclooxygenase-2),500 fold
"C=C[C@@]1(C)CC=C2[C@@H](CC[C@@H]3[C@](C)(C(=O)O)CCC[C@@]23C)C1 [Formula (I), acanthoic acid]",inhibition of IL-6 synthesis,IL-6 synthesis,neither analog TTL1 nor TTL3 significantly inhibited IL-6 synthesis
same,inhibition of the TNF-α production,TNF-α production,approximately 90%
same,inhibition of the IL-1 production,IL-1 production,approximately 90%
same,production of IL-6,IL-6,not affected
same,production of IFN-γ,IFN-γ (interferon-gamma),not affected
same,fibrotic granulomas (histologic analysis),silicosis,substantial reduction of fibrotic granulomas
same,cirrotic liver cells (histologic analysis),cirrhosis,remarkable recovery of the cirrotic liver cells
same,toxicity,mice,minimal toxicity
same,toxicity,mice; listed as 1,very little toxicity
same,LD,mice; orally,> 300 mg/100 g of body weight
same,minimum lethal dose (MLD),"rat; rat, in vivo",1000 mg/kg
same,toxicity,rat; rats,minimal toxicity
C=CC1(C)CCC=C2C1CCC1C(C)(COC(C)=O)CCCC21C (centres unmarked) [LT-1-46],Cell Viability,THP-1 cells; 100 ng/ml,100
same,Cell Viability,THP-1 cells; 1 ug/ml,90*
same,Cell Viability,THP-1 cells; 10 ug/ml,90*
same,Percent TNF-α Inhibition,[1]; 100 ng/ml,0%
same,Percent TNF-α Inhibition,[1]; 1 ug/ml,0%
same,Percent TNF-α Inhibition,[1]; 10 ug/ml,20%
C=CC1(C)CCC=C2C1CCC1C(C)(C(=O)NCCN)CCCC21C (centres unmarked) [LT-1-74],Cell Viability,THP-1 cells; 100 ng/ml,100
same,Cell Viability,THP-1 cells; 1 ug/ml,100
same,Percent TNF-α Inhibition,[1]; 100 ng/ml,25%
same,Percent TNF-α Inhibition,[1]; 1 ug/ml,30%
C=CC1(C)CCC=C2C1CCC1C(C)(C(=O)N(CCO)CCO)CCCC21C (centres unmarked) [LT-1-78],Cell Viability,THP-1 cells; 100 ng/ml,100
same,Cell Viability,THP-1 cells; 1 ug/ml,100
same,Cell Viability,THP-1 cells; 10 ug/ml,100
same,Percent TNF-α Inhibition,[1]; 100 ng/ml,0%
same,Percent TNF-α Inhibition,[1]; 1 ug/ml,0%
same,Percent TNF-α Inhibition,[1]; 10 ug/ml,20%
C=CC1(C)CCC=C2C1CCC1C(C)(C(=O)N3CCOCC3)CCCC21C (centres unmarked) [LT-1-85],Cell Viability,THP-1 cells; 100 ng/ml,100
same,Cell Viability,THP-1 cells; 1 ug/ml,100
same,Cell Viability,THP-1 cells; 10 ug/ml,80*
same,Percent TNF-α Inhibition,[1]; 100 ng/ml,10%
same,Percent TNF-α Inhibition,[1]; 1 ug/ml,45%
same,Percent TNF-α Inhibition,[1]; 10 ug/ml,55%
C=C[C@@]1(C)CCC=C2[C@H]1CC[C@@H]1[C@](C)(C(=O)O)CCC[C@@]21C [TTL1],inhibition of IL-6 synthesis,IL-6 synthesis,neither analog TTL1 nor TTL3 significantly inhibited IL-6 synthesis
same,Cell Viability,THP-1 cells; 100 ng/ml,100
same,Cell Viability,THP-1 cells; 1 ug/ml,100
same,inhibition at 0.1 µg/mL,"[1]; Homo sapiens, 100 ng/ml, read-out: Percent TNF-α Inhibition",10%
same,inhibition at 1 µg/mL,"[1]; Homo sapiens, 1 ug/ml, read-out: Percent TNF-α Inhibition",30%
same,inhibition at 10 µg/mL,"[1]; Homo sapiens, 10 ug/ml, read-out: Percent TNF-α Inhibition",50%
C=CC1(C)CCC=C2C1CCC1C(C)(C(=O)OC)CCCC21C (centres unmarked) [TTL3],TNF-α,TNF-α synthesis [3]; LPS (1 μg/ml) + TTL3 1.0 μg/ml,13 ng/mL
same,TNF-α,TNF-α synthesis [3]; LPS (1 μg/ml) + TTL3 1 × 10^2 μg/ml,4 ng/mL
same,TNF-α,TNF-α synthesis [3]; LPS (1 μg/ml) + TTL3 1 × 10^−4 μg/ml,15 ng/mL
same,TNF-α,TNF-α synthesis [3]; LPS (1 μg/ml) + TTL3 1 × 10^−5 μg/ml,10 ng/mL
same,TNF-α,TNF-α synthesis [3]; LPS (1 μg/ml) + TTL3 1 × 10^−6 μg/ml,18 ng/mL
same,TNF-α,TNF-α synthesis [3]; LPS (1 μg/ml) + TTL3 1 × 10^−7 μg/ml,41 ng/mL
same,times greater activity than TTL1 (inhibiting TNF-α synthesis),TNF-α synthesis [3]; stimulus not given,approximately 100 times
same,TNF-α,"TNF-α synthesis [4]; Table 5, TTL3 0.001 μg/ml",80 ng/mL
same,TNF-α,"TNF-α synthesis [4]; Table 5, TTL3 0.01 μg/ml",75 ng/mL
same,TNF-α,"TNF-α synthesis [4]; Table 5, TTL3 0.1 μg/ml",85 ng/mL
same,TNF-α,"TNF-α synthesis [4]; Table 5, TTL3 1 μg/ml",60 ng/mL
same,TNF-α,"TNF-α synthesis [4]; Table 5, TTL3 10 μg/ml",80 ng/mL
same,IL-1α,IL-1 synthesis; TTL3 0.001 μg/ml,200 pg/mL
same,IL-1α,IL-1 synthesis; TTL3 0.01 μg/ml,220 pg/mL
same,IL-1α,IL-1 synthesis; TTL3 0.1 μg/ml,190 pg/mL
same,IL-1α,IL-1 synthesis; TTL3 1 μg/ml,180 pg/mL
same,IL-1α,IL-1 synthesis; TTL3 10 μg/ml,170 pg/mL
same,times greater activity than TTL1 (inhibiting IL-1 synthesis),IL-1 synthesis; stimulus not given,approximately 100 times
same,inhibition of IL-6 synthesis,IL-6 synthesis,neither analog TTL1 nor TTL3 significantly inhibited IL-6 synthesis
same,Mortality 24 hours,"LPS/D-Gal administration; LPS/D-Gal alone 10/10, + DMSO 8/10",2/10
same,Mortality 48 hours,"LPS/D-Gal administration; LPS/D-Gal alone 10/10, + DMSO 9/10",2/10
same,Cell Viability,THP-1 cells; 100 ng/ml,100
same,Cell Viability,THP-1 cells; 1 ug/ml,100
same,Cell Viability,THP-1 cells; 10 ug/ml,100
same,Percent TNF-α Inhibition,[1]; 100 ng/ml,30%
same,Percent TNF-α Inhibition,[1]; 1 ug/ml,55%
same,Percent TNF-α Inhibition,[1]; 10 ug/ml,70%
C=CC1(C)CCC=C2C1CCC1C(C)(C(=O)[O-])CCCC21C.[K+] (centres unmarked) [TTL-1K],Percent TNF-α Inhibition,[1]; 100 ng/ml,10%
same,Percent TNF-α Inhibition,[1]; 1 ug/ml,50%
C=CC1(C)CCC=C2C1CCC1C(C)(C(=O)[O-])CCCC21C.[Na+] (centres unmarked) [TTL-1Na],Cell Viability,THP-1 cells; 1 ug/ml,90*
same,Cell Viability,THP-1 cells; 10 ug/ml,80*
same,Percent TNF-α Inhibition,[1]; 1 ug/ml,40%
same,Percent TNF-α Inhibition,[1]; 10 ug/ml,50%
